From article PMC12278645, “Design, synthesis, and antitumor activity of novel thioheterocyclic nucleoside derivatives by suppressing the c-MYC pathway” (Acta Pharmaceutica Sinica. B, 2025)

Columns and labels:
HeLa cells = experiment: CCK-8 anti-proliferation assay, HeLa; type: cell-based, human
Description: (§1) Tumor cell anti-proliferation activities were determined by cell counting kit-8 (CCK-8) assay.
(§2) MCF-7, A375, and HeLa cells were cultured in DMEM, HCT116 cells were cultured in McCoy's 5A medium, and DU145 and CT26 were cultured in RPMI 1640 with 10% FBS, 1% penicillin-streptomycin solution (10,000 U/mL penicillin and 10,000 μg/mL streptomycin) at 37 °C under 5% CO2. The cells were seeded in 96-well plates (4 × 10^3 cells/well) overnight and then treated with various concentrations (1–50 μmol/L) of the compound. After 48 h, the cell viability was measured by CCK-8 assay. The absorbance of each well was measured using a microplate reader (Multiskan FC, Thermo Fisher Scientific, Massachusetts, USA) at 450 nm wavelength. Assays were performed in triplicate. Compound concentrations that inhibited cell growth by 50% (IC50) were calculated from the dose–response curves of each cell line. Data are mean ± SD values from three independent experiments.

HCT116 cells = experiment: CCK-8 anti-proliferation assay, HCT116; type: cell-based, human
Description: as §1, §2

[1] = Homo sapiens, HeLa, 48 h, CCK-8, 48 h, mean ± SD, three independent experiments
[2] = Homo sapiens, HCT-116, 48 h, CCK-8, 48 h, mean ± SD, three independent experiments
[3] = CCK-8, 48 h, mean ± SD, three independent experiments

IC50 (HeLa cells; [1]) | IC50 (HCT116 cells; [2]) | SMILES | IC50 (HeLa cells; [3]) | IC50 (HCT116 cells; [3]) | also measured
> 50 µM | > 50 µM | CCOC(=O)[C@]1(n2cnc3c(SCCCCl)ncnc32)CSC[C@H]1O (relative stereo) [31a] | – | – | –
15.1 ± 2.08 µM | 6.78 ± 1.22 µM | CCOC(=O)[C@]1(n2cnc3c(Sc4ccc(C(C)(C)C)cc4)ncnc32)CSC[C@@H]1O (relative stereo) [29b] | – | – | –
9.49 ± 1.18 µM | 0.37 ± 0.08 µM | CCCSc1nc(F)nc2c1ncn2[C@]1(C(=O)OCC)CSC[C@H]1O [36bb] | – | – | –
10.8 ± 1.07 µM | 19.1 ± 1.37 µM | CCOC(=O)[C@]1(n2cnc3c(SCCCF)ncnc32)CSC[C@H]1O (relative stereo) [30a] | – | – | –
22.3 ± 2.09 µM | 14.4 ± 1.64 µM | CCOC(=O)[C@]1(n2cnc3c(SCc4ccccc4)ncnc32)CSC[C@H]1O (relative stereo) [27a] | – | – | –
6.07 ± 0.78 µM | 11.9 ± 1.32 µM | CCCCCSc1ncnc2c1ncn2[C@@]1(C(=O)OCC)CSC[C@H]1O (relative stereo) [26a] | – | – | –
3.43 ± 0.76 µM | 4.01 ± 0.88 µM | CCOC(=O)[C@]1(n2cnc3c(SC(C)C)ncnc32)CSC[C@@H]1O (relative stereo) [23b] | – | – | –
25.8 ± 1.35 µM | 15.7 ± 2 µM | CCOC(=O)[C@]1(n2cnc3c(Sc4cccc(F)c4)ncnc32)CSC[C@@H]1O (relative stereo) [28b] | – | – | –
14.9 ± 2.01 µM | 1.66 ± 0.13 µM | C#CCSc1ncnc2c1ncn2[C@@]1(C(=O)OCC)CSC[C@@H]1O (relative stereo) [24b] | – | – | –
8.45 ± 1.23 µM | 4.85 ± 1.02 µM | CCOC(=O)[C@]1(n2cnc3c(SC(C)C)ncnc32)CSC[C@H]1O (relative stereo) [23a] | – | – | –
23.9 ± 2.38 µM | 5.65 ± 1.4 µM | CCOC(=O)[C@]1(n2cnc3c(SCc4ccccc4)ncnc32)CSC[C@@H]1O (relative stereo) [27b] | – | – | –

Further lines, the compound ahead of its results:

SMILES | IC50 (HeLa cells; [1]) | IC50 (HCT116 cells; [2]) | IC50 (HeLa cells; [3]) | IC50 (HCT116 cells; [3]) | also measured
CCOC(=O)C1(n2cnc3c(Cl)nc(N)nc32)CSCC1O (single isomer, unassigned) [38a] | – | – | – | – | IC50 (HeLa cells; Table S3, CCK-8, mean ± SD): 25.6 ± 2.13 µM; IC50 (HCT116 cells; Table S3, CCK-8, mean ± SD): 30.5 ± 1.42 µM
CCOC(=O)C1(n2cnc3c(Cl)nc(N)nc32)CSCC1O (single isomer, unassigned) [38b] | – | – | – | – | IC50 (HeLa cells; Table S3, CCK-8, mean ± SD): 22.5 ± 2.17 µM; IC50 (HCT116 cells; Table S3, CCK-8, mean ± SD): 10.6 ± 1.02 µM
CCOC(=O)C1(n2cnc3c(N4CCC(C(F)(F)F)CC4)ncnc32)CSCC1O (single isomer, unassigned) [13a] | – | – | 42 ± 2.12 µM | 5.89 ± 1.02 µM | –
CCOC(=O)C1(n2cnc3c(Br)ncnc32)CSCC1O (single isomer, unassigned) [3a] | – | – | > 50 µM | 8.97 ± 1.03 µM | –
CCOC(=O)C1(n2cnc3c(N4CCC(C)CC4)ncnc32)CSCC1O (single isomer, unassigned) [11b] | – | – | 23.4 ± 2.76 µM | 0.91 ± 0.27 µM | –
CCOC(=O)C1(n2cnc3c(N4CCN(C)CC4)ncnc32)CSCC1O (centres unmarked) [18a] | – | – | > 50 µM | > 50 µM | anticancer activity (HCT116 cells; under 50 μmol/L, HeLa and HCT116): inactive
CCCSc1nc(Cl)nc2c1ncn2C1(C(=O)OCC)CSCC1O (single isomer, unassigned) [37b] | – | – | 5.98 ± 1.25 µM | 2.7 ± 0.04 µM | –
CCOC(=O)C1(n2cnc3c(N4CCC(Cl)CC4)ncnc32)CSCC1O (single isomer, unassigned) [14a] | – | – | 12.1 ± 1.32 µM | 15 ± 2.16 µM | –
CCOC(=O)C1(n2cnc3c(N4CCCCC4)nc(Cl)nc32)CSCC1O (single isomer, unassigned) [34a] | – | – | 4.86 ± 0.65 µM | 7.2 ± 0.39 µM | –
CCOC(=O)C1(n2cnc3c(OCC)ncnc32)CSCC1O (centres unmarked) [6a] | – | – | > 50 µM | > 50 µM | –
CCOC(=O)C1(n2cnc3c(N4CCC(Cc5ccccc5F)CC4)ncnc32)CSCC1O (single isomer, unassigned) [17a] | – | – | 17 ± 1.03 µM | 4.4 ± 1.02 µM | –
CCOC(=O)[C@]1(n2cnc3c(SC)ncnc32)CSC[C@H]1O (relative stereo) [21a] | 31 ± 2.18 µM | 44.1 ± 1.36 µM | – | – | –
CCOC(=O)C1(n2cnc3c(Cl)ncnc32)CSCC1O (single isomer, unassigned) [2a] | – | – | > 50 µM | 48.9 ± 2.12 µM | –
CCOC(=O)C1(n2cnc3c(Br)ncnc32)CSCC1O (single isomer, unassigned) [3b] | – | – | > 50 µM | > 50 µM | –
CCOC(=O)[C@]1(n2cnc3c(SCC)ncnc32)CSC[C@@H]1O (relative stereo) [22b] | 3.27 ± 0.82 µM | 2.42 ± 0.82 µM | – | – | –
CCOC(=O)C1(n2cnc3c(OC)ncnc32)CSCC1O (centres unmarked) [7a] | – | – | > 50 µM | > 50 µM | –
CCCSc1nc(N)nc2c1ncn2C1(C(=O)OCC)CSCC1O (single isomer, unassigned) [35a] | – | – | 9.44 ± 1.27 µM | 0.73 ± 0.11 µM | –
CCOC(=O)C1(n2cnc3c(N4CCCCCC4)ncnc32)CSCC1O (single isomer, unassigned) [19a] | – | – | 22.8 ± 1.22 µM | 1.19 ± 0.09 µM | –
CCOC(=O)C1(n2cnc3c(N4CCCC4)ncnc32)CSCC1O (single isomer, unassigned) [20b] | – | – | 12.2 ± 1.28 µM | 22.8 ± 1.04 µM | –
CCOC(=O)C1(n2cnc3c(N4CCOCC4)ncnc32)CSCC1O (single isomer, unassigned) [9a] | – | – | 10.8 ± 1.03 µM | > 50 µM | –

SMILES | IC50 (HeLa cells; [1]) | IC50 (HCT116 cells; [2]) | IC50 (HeLa cells; [3]) | IC50 (HCT116 cells; [3]) | also measured
CCOC(=O)C1(n2cnc3cnc(Cl)nc32)CSCC1O (centres unmarked) [41a] | – | – | – | – | IC50 (HeLa cells; Table S3, CCK-8, mean ± SD): > 50 µM; IC50 (HCT116 cells; Table S3, CCK-8, mean ± SD): > 50 µM
CCOC(=O)C1(n2cnc3c(N4CCC(N5CCOCC5)CC4)ncnc32)CSCC1O (single isomer, unassigned) [15b] | – | – | 7.71 ± 1.02 µM | 32 ± 2.09 µM | –
CCOC(=O)C1(n2cnc3c(N4CCCC4)ncnc32)CSCC1O (single isomer, unassigned) [20a] | – | – | 11.4 ± 1.42 µM | 39.1 ± 1.35 µM | –
CCOC(=O)C1(n2cnc3c(Cl)nc(F)nc32)CSCC1O (single isomer, unassigned) [39b] | – | – | – | – | IC50 (HeLa cells; Table S3, CCK-8, mean ± SD): 9.33 ± 1.17 µM; IC50 (HCT116 cells; Table S3, CCK-8, mean ± SD): 2.01 ± 0.24 µM
CCOC(=O)C1(n2cnc3c(Cl)nc(Cl)nc32)CSCC1O (single isomer, unassigned) [40a] | – | – | – | – | IC50 (HeLa cells; Table S3, CCK-8, mean ± SD): 8.21 ± 1.25 µM; IC50 (HCT116 cells; Table S3, CCK-8, mean ± SD): 5.37 ± 1.02 µM
CCOC(=O)C1(n2cnc3c(N4CCSCC4)ncnc32)CSCC1O (single isomer, unassigned) [10a] | – | – | 45.8 ± 2.12 µM | 18.8 ± 1.04 µM | –
CCOC(=O)C1(n2cnc3c(N4CCCCC4)nc(N)nc32)CSCC1O (single isomer, unassigned) [32b] | – | – | 5.37 ± 1.09 µM | 0.81 ± 0.12 µM | –
CCOC(=O)C1(n2cnc3c(N4CCC(C)CC4)ncnc32)CSCC1O (single isomer, unassigned) [11a] | – | – | 21.8 ± 2.42 µM | 1.44 ± 0.13 µM | –
CCOC(=O)[C@]1(n2cnc3c(SCC)ncnc32)CSC[C@H]1O (relative stereo) [22a] | 5.46 ± 1.02 µM | 7.56 ± 1.09 µM | – | – | –
CCOC(=O)C1(n2cnc3c(N4CCCCC4)nc(N)nc32)CSCC1O (single isomer, unassigned) [32a] | – | – | 5.35 ± 1.05 µM | 0.72 ± 0.08 µM | –
CCOC(=O)C1(n2cnc3c(N4CCOCC4)nc(Cl)nc32)CSCC1O (single isomer, unassigned) [42b] | – | – | – | – | IC50 (HeLa cells; Table S3, CCK-8, mean ± SD): 3.21 ± 0.65 µM; IC50 (HCT116 cells; Table S3, CCK-8, mean ± SD): 4.48 ± 0.56 µM
CCOC(=O)C1(n2cnc3c(N4CCCCCC4)ncnc32)CSCC1O (single isomer, unassigned) [19b] | – | – | 46.1 ± 2.46 µM | 3.05 ± 0.67 µM | –
CCCSc1nc(N)nc2c1ncn2C1(C(=O)OCC)CSCC1O (single isomer, unassigned) [35b] | – | – | 8.49 ± 1.02 µM | 0.65 ± 0.21 µM | –
CCOC(=O)[C@]1(n2cnc3c(N4CCCCC4)nc(F)nc32)CSC[C@H]1O [33aa] | 6.17 ± 1.01 µM | 0.58 ± 0.17 µM | – | – | –
CCCSc1nc(Cl)nc2c1ncn2C1(C(=O)OCC)CSCC1O (single isomer, unassigned) [37a] | – | – | 1.58 ± 0.36 µM | 3.81 ± 0.13 µM | –
CCOC(=O)C1(n2cnc3c(N4CCC(Cc5ccccc5F)CC4)ncnc32)CSCC1O (single isomer, unassigned) [17b] | – | – | 17 ± 1.12 µM | 4.49 ± 1.13 µM | –
CCOC(=O)C1(n2cnc3c(Cl)nc(Cl)nc32)CSCC1O (single isomer, unassigned) [40b] | – | – | – | – | IC50 (HeLa cells; Table S3, CCK-8, mean ± SD): 4.45 ± 1.07 µM; IC50 (HCT116 cells; Table S3, CCK-8, mean ± SD): 2.13 ± 0.46 µM
CCOC(=O)C1(n2cnc3c(N4CCC(F)CC4)ncnc32)CSCC1O (single isomer, unassigned) [12b] | – | – | 40.9 ± 3.08 µM | 3.92 ± 0.87 µM | –
CCOC(=O)C1(n2cnc3c(N4CCC(F)CC4)ncnc32)CSCC1O (single isomer, unassigned) [12a] | – | – | 44.5 ± 3.12 µM | 1.64 ± 0.27 µM | –
